Assay results: US20200222400A1, “METHODS FOR THE TREATMENT OF NEUROLOGICAL DISORDERS” (Yumanity Therapeutics, Inc., priority 2019, published 2020)

Columns and labels:
yeast OLE1 = target: T1, yeast OLE1 (Saccharomyces cerevisiae, UniProt P21147); assay: Growth of yeast surviving solely on yeast OLE1; format: cell-based; settings: percent of DMSO-treated condition
T1 construct: expressed in transfected cells; host or cells: S. cerevisiae ole1Δ strain (W303 pdr1Δ pdr3Δ background), pRS316 plasmid, TDH3 promoter
T1 sequence (P21147 1-510): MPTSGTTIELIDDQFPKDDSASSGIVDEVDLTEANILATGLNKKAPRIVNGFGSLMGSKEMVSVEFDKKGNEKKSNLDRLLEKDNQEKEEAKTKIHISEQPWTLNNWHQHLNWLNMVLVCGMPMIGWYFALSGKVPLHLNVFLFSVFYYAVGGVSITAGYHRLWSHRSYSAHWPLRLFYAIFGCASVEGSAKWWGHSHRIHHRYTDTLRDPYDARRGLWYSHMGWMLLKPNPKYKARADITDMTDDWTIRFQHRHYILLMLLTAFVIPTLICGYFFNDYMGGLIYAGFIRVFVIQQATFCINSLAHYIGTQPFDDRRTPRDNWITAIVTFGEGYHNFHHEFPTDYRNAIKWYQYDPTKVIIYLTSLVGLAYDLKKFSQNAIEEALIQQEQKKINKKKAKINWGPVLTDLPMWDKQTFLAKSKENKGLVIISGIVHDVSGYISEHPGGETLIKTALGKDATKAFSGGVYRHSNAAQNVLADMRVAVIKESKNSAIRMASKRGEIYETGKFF
Source text: (§1) To generate yeast strains expressing SCD1 or SCD5 as the sole desaturase, the human SCD1 and SCD5 genes were cloned from cDNAs (Harvard PlasmID database Clone ID HsCD00340237 for SCD1 and HsCD00342695 for SCD5) into yeast plasmid pRS316 (ATCC 77145) between the yeast TDH3 promoter and the CYC1 terminator. The coding sequence of yeast OLE1 was also cloned into this plasmid). These clones were then transformed into the ole1Δ strain and plated on CSM-Ura media (CSM lacking uracil) with 2% glucose (w/v) and independent colonies were isolated and amplified.
(§2) All compound profiling experiments were performed using the same basic protocol. Different genetic backgrounds (e.g., gene deletions) or conditions (e.g., addition of oleic and palmitoleic acid) were replaced as indicated below.
(§3) Compound stocks (10 mM in 100% DMSO) were arrayed into 384 round well, v-bottom polypropylene plates and diluted according to indicated dilution factors. Compound administration was performed in two separate steps. First, 15 μL of CSM-Galactose (induces expression of toxic protein) was dispensed into clear 384 well assay plates using a MULTIDROP™ Combi reagent dispenser. The diluted compound stock plates were then applied to the assay plates using an automated workstation (Perkin Elmer JANUS™) outfitted with a 384 pin tool containing slotted pins that deliver 100 nL of compound. The cultures described above were then diluted to a 2× concentration (0.03 and 0.08 for alpha-synuclein and ApoE, final OD600 of 0.015 and 0.04) in CSM-Galactose. For wild-type and Ole1/SCD1/SCD5 plasmid-containing strains, the 2× cell density was 0.02. In all experiments, 15 μL culture was then dispensed into the pinned assay plate to achieve 30 μL of the 1×OD600 culture and a top drug concentration of […]. For 96-well assays (FIGS. 2A and 2B), compound dilutions in DMSO were generated in 96 well plates and 1 μL was manually pipetted into 96 well clear bottom assay plates.
(§4) For experiments using a plasmid-borne copy of Ole1, SCD1, or SCD5 (FIGS. 4B, 7, and 8), media lacking uracil (SX-Ura, where X is glucose, raffinose, or galactose), was used for all steps of the compound profiling protocol to ensure its maintenance throughout the assay.
(§5) After yeast delivery, assay plates were incubated under humidified conditions at 30° C. for 24 to 40 h. ApoE4 rescue experiments were stopped at 24 h, aSyn experiments at 40 h, Ole1 at 24 h, and SCD1/SCD5 at 40 h. The growth of yeast was monitored by reading the OD600 of each well using a microplate reader (Perkin Elmer EnVision™). For model rescue experiments, raw data were processed by background subtracting and calculating a fold-change relative to DMSO control [(EXP−0.035)/(DMSO−0.035)—where 0.035 is the OD600 contributed by an empty well containing 30 μL of media alone]. For growth inhibition of wild-type cells, raw data were processed by background subtracting and converting values to a percent of the nontreated condition for that strain [(EXP−0.035)/(DMSO−0.035)×100%].

human SCD5 = target: T2, human SCD5 (Homo sapiens, UniProt Q86SK9); assay: Growth of humanized yeast expressing human SCD5 as sole desaturase; format: cell-based, Saccharomyces cerevisiae expressing Saccharomyces cerevisiae expressing Saccharomyces cerevisiae expressing Saccharomyces cerevisiae expressing Saccharomyces cerevisiae expressing human SCD5 SCD5 SCD5 SCD5 SCD5; settings: for half-maximal inhibitory concentration (IC50), SCD5 humanized strain: yeast growth
T2 construct: host or cells: S. cerevisiae ole1Δ strain (W303 pdr1Δ pdr3Δ background), pRS316 plasmid, TDH3 promoter
T2 sequence (Q86SK9 1-330): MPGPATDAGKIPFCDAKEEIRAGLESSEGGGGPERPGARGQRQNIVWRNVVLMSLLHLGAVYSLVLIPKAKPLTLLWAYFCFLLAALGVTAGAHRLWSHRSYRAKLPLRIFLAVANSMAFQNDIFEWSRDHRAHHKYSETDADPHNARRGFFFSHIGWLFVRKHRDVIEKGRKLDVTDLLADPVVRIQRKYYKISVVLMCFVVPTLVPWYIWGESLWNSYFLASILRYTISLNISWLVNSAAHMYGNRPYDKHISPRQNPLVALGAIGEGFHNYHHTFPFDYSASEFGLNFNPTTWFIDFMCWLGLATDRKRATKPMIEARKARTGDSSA
Source text: as §1, §2, §3, §4, §5

human SCD1 = target: T3, human SCD1 (Homo sapiens, UniProt O00767); assay: Growth of humanized yeast expressing human SCD1 as sole desaturase; format: cell-based, humanized yeastized yeastized yeastized yeast; settings: for half-maximal inhibitory concentration (IC50), SCD1 humanized strain: yeast growth
T3 construct: host or cells: S. cerevisiae ole1Δ strain (W303 pdr1Δ pdr3Δ background), pRS316 plasmid, TDH3 promoter
T3 sequence (O00767 1-359): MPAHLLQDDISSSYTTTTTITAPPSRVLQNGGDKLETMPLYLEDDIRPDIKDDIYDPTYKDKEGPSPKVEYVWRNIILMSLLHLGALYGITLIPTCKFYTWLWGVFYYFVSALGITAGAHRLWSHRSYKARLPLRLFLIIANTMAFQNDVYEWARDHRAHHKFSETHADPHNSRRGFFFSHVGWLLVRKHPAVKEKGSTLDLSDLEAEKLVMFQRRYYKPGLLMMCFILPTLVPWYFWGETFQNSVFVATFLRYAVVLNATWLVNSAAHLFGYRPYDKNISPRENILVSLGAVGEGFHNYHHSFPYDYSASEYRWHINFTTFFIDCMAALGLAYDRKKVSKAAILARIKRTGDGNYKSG
Protocol: The coding sequence of yeast OLE1 was also cloned into this plasmid). These clones were then transformed into the ole1Δ strain and plated on CSM-Ura media (CSM lacking uracil) with 2% glucose (w/v) and independent colonies were isolated and amplified.
as §2
Compound administration was performed in two separate steps. First, 15 μL of CSM-Galactose (induces expression of toxic protein) was dispensed into clear 384 well assay plates using a MULTIDROP™ Combi reagent dispenser. […] The cultures described above were then diluted to a 2× concentration (0.03 and 0.08 for alpha-synuclein and ApoE, final OD600 of 0.015 and 0.04) in CSM-Galactose. For wild-type and Ole1/SCD1/SCD5 plasmid-containing strains, the 2× cell density was 0.02.
as §4
After yeast delivery, assay plates were incubated under humidified conditions at 30° C. for 24 to 40 h. ApoE4 rescue experiments were stopped at 24 h, aSyn experiments at 40 h, Ole1 at 24 h, and SCD1/SCD5 at 40 h. The growth of yeast was monitored by reading the OD600 of each well using a microplate reader (Perkin Elmer EnVision™).

[1] = system: apolipoprotein E4 (ApoE4) Alzheimer's disease yeast model; assay: ApoE4 yeast model rescue (growth, OD600); format: cell-based, Saccharomyces cerevisiae; settings: 12-point dose
Source text: Strain ApoE-mga2Δ was generated by amplifying 1000 base pairs (bp) upstream and downstream of the MGA2 ORF in a strain in which MGA2 was deleted using a G418 (GENETICIN®) resistance cassette (kanMX) (Piotrowski et al. Proc. Natl. Acad. Sci. USA 112(12):E1490-1497, 2015) and transforming the resulting deletion cassette into the ApoE4 strain in the BY4741 (ATCC 201388) genetic background. The ApoE strain is described, for example, in International Patent Application Publication No. WO 2016/040794, which is incorporated herein by reference in its entirety.
as §2
Yeast were cultured using standard techniques in complete synthetic media (CSM) and yeast nitrogen base supplemented with 2% (w/v) carbon source (glucose, raffinose, or galactose) to regulate the expression of the toxic disease protein. An initial starter culture was inoculated in 3 mL CSM-Glucose media and incubated overnight in a 30° C. shaker incubator (225 rpm). […]
(§6) After yeast delivery, assay plates were incubated under humidified conditions at 30° C. for 24 to 40 h. […] The growth of yeast was monitored by reading the OD600 of each well using a microplate reader (Perkin Elmer EnVision™). […]

Ole1/SCD = assay: Yeast growth inhibition in control / wild-type condition (OD600); format: cell-based, Saccharomyces cerevisiae; settings: ApoE4 strain, non-inducing conditions, raffinose
Source text: Strain GMYF was constructed from the ABC16/Green monster strain described in Suzuki et al. Nat. Methods 8(2):159-164, 2011. In this strain, YAP1 was deleted using a HIS3-MX6 cassette, and FLR1 was deleted using a NAT-MX6 cassette using standard methods. The knockout cassettes were PCR-amplified from plasmid templates (see, e.g., Bahler et al. Yeast 14(10):943-951, 1998; Longtine et al. Yeast 14(10):953-961, 1998) and transformed into yeast using lithium acetate-based transformation (Gietz et al. Methods Mol. Biol. 1205:1-12, 2014). The yap1::his3 deletion strain was selected on media lacking histidine and flr1::NAT on plates containing 100 μg/mL nourseothricin. All strains were confirmed by diagnostic PCR. Strain W303 pdr1Δ pdr3Δ was constructed from W303-1A (American Type Culture Collection (ATCC) 208352) by deleting PDR1 and PDR3 with kan-MX6 cassettes separately in MATa and MATα W303a isolates, mating, sporulating, and identifying the double deletion haploids by tetrad dissection and identification of non-parental ditype tetrads. Strain W-erg3 was derived from W303 pdr1Δ pdr3 by deleting SNQ2 with NAT-MX6, YAP1 with HIS3-MX6, and ERG3 with BleMX. […]
as §6

[2] = system: cellular fatty acid desaturase activity (Ole1); assay: Quantitative lipid profiling of yeast by LC-MS/MS; format: cell-based, Saccharomyces cerevisiae
Protocol: Overnight cultures of yeast strain W303 pdr1Δ pdr3Δ were diluted into CSM media with 2% (w/v) raffinose, OD600 0.25, and grown for 4 h before resuspending at an OD600 of 0.2 in CSM media with 2% (w/v) galactose and adding Compound 2 or DMSO at the indicated concentrations. Cells were grown for the indicated timepoints before centrifugation, washing once in PBS, and freezing pellets. Lipids were extracted from pellets by resuspending the pellets in 600 μL methanol, 300 μL water, and 400 μL chloroform, followed by cell lysis by vortexing with glass beads for 1 min. Samples were then centrifuged at 10,000×g for 10 min, and the bottom layer that formed (organic/lipids) was moved into a new tube and evaporated. Samples were then analyzed by LC/MS/MS using a Thermo Scientific Q Exactive™ Orbitrap™ coupled to a Dionex UltiMate® 3000 ultra-high performance liquid chromatography system, following the method described in Tafesse et al. PLoS Pathog. 11(10): e1005188, 2015.

[3] = percent of DMSO-treated condition

SMILES	growth inhibition of yeast expressing OLE1 (yeast OLE1)	half-maximal inhibitory concentration (IC50), SCD5 humanized strain (human SCD5)	half-maximal inhibitory concentration (IC50), SCD1 humanized strain (human SCD1)	further results
O=C(O)Cn1nnc(-c2cc(N3CCC(Oc4cc(F)ccc4Br)CC3)no2)n1 [MK-8245]	resistant	low nanomolar		
Cc1nnc(-c2ccc(N3CCC(Oc4ccccc4C(F)(F)F)CC3)nn2)s1 [MF-438]	resistant	low nanomolar	low nanomolar	
CNC(=O)c1cccc(NC(=O)N2CCC(Oc3ccccc3Cl)CC2)c1 [Compound A939572]	resistant	low nanomolar	low nanomolar	
C[C@@H]1C[C@@H]([C@H](O)CC2CC(=O)NC(=O)C2)C(=O)[C@@H](C)C1 [Cyclohexamide, cycloheximide]	inhibited growth of all three strains with the same potency			growth inhibition of SCD1-expressing yeast (human SCD1; [3]): inhibited growth of all three strains with the same potency; growth inhibition of SCD5-expressing yeast (human SCD5; [3]): inhibited growth of all three strains with the same potency
COc1ccc(-c2noc(C3CCN(C(=O)CNC(=O)c4ccccc4)CC3)n2)cc1OC [Compound 1, N-(2-(4-(3-(3,4-dimethoxyphenyl)-1,2,4-oxadiazol-5-yl)piperidin-1-yl)-2-oxoethyl)benzamide]				rescue dose-response in ApoE4 model (OD600) [1]: bell-shaped dose-response curve; growth in control (non-inducing) condition (Ole1/SCD): growth decreased at this same concentration
Cc1nn(C)c2cc(-c3noc(C4CCN(C(=O)CNC(=O)c5ccccc5)CC4)n3)ccc12 [Compound 2, N-(2-(4-(3-(1,3-dimethyl-1H-indazol-6-yl)-1,2,4-oxadiazol-5-yl)piperidin-1-yl)-2-oxoethyl)benzamide]				decrease in abundance of unsaturated lipid phosphatidylcholine 16:1, 18:1 ([2]; 8 h treatment, wild-type yeast): > 12 fold; increase in abundance of saturated lipid phosphatidylcholine 26:0 ([2]; 8 h treatment, wild-type yeast): > 300 fold; lipid desaturation ([2]; yeast cells): inhibited lipid desaturation
